logP and Activity data for 12 compounds are collected here from ChEMBL document CHEMBL1158410, “Synthesis and evaluation of 1-(quinoliloxypropyl)-4-aryl piperazines for atypical antipsychotic effect” (Bioorg Med Chem Lett, 2009).

Series [1] in a line: Lipophilicity, log P of the compound. It is filed as physicochemical. To be noted: octanol/water.
In series [2] the test system is Mus musculus. In words: Antipsychotic activity in albino lyka mouse assessed as reduction in apomorphine-induced mesh climbing response at 20 mg/kg, ip administered 10 mins prior to apomorphine challenge measured after 10 to 30 mins. It is filed as functional, organism-based. Details: dose 20 mg/kg.
For series [3], the system named is Mus musculus. In words: Antipsychotic activity in albino lyka mouse assessed as reversal of apomorphine-induced stereotype response at 20 mg/kg, ip administered 10 mins prior to apomorphine challenge measured after 10 to 30 mins. It is filed as functional, organism-based. Also noted: dose 20 mg/kg.
Series [4] deals with Mus musculus. In words: Antipsychotic activity in albino lyka mouse assessed as reduction in apomorphine-induced mesh climbing response at 120 mg/kg, ip administered 10 mins prior to apomorphine challenge measured after 10 to 30 mins. It is filed as functional, organism-based. Also noted: dose 120 mg/kg.
Series [5] relates to Mus musculus. In words: Antipsychotic activity in albino lyka mouse assessed as reversal of apomorphine-induced stereotype response at 120 mg/kg, ip administered 10 mins prior to apomorphine challenge measured after 10 to 30 mins. It is filed as functional, organism-based. Also noted: dose 120 mg/kg.
Series [6] concerns Mus musculus. In words: Antipsychotic activity in albino lyka mouse assessed as reduction in apomorphine-induced mesh climbing response at 5 mg/kg, ip administered 10 mins prior to apomorphine challenge measured after 10 to 30 mins. It is filed as functional, organism-based. Details: dose 5 mg/kg.
The subject of series [7] is Mus musculus. Nature of the series: Antipsychotic activity in albino lyka mouse assessed as reversal of apomorphine-induced stereotype response at 5 mg/kg, ip administered 10 mins prior to apomorphine challenge measured after 10 to 30 mins. It is filed as functional, organism-based. Also noted: dose 5 mg/kg.
In series [8] the test system is Mus musculus. Nature of the series: Antipsychotic activity in albino lyka mouse assessed as reduction in apomorphine-induced mesh climbing response at 25 mg/kg, ip administered 10 mins prior to apomorphine challenge measured after 10 to 30 mins. It is filed as functional, organism-based. Details: dose 25 mg/kg.
Series [9] has as its system Mus musculus. In words: Antipsychotic activity in albino lyka mouse assessed as reversal of apomorphine-induced stereotype response at 25 mg/kg, ip administered 10 mins prior to apomorphine challenge measured after 10 to 30 mins. It is filed as functional, organism-based. Details: dose 25 mg/kg.
Series [10] relates to Mus musculus. In words: Antipsychotic activity in albino lyka mouse assessed as reduction in apomorphine-induced mesh climbing response at 1 mg/kg, ip administered 10 mins prior to apomorphine challenge measured after 10 to 30 mins. Details: dose 1 mg/kg. It is filed as functional, organism-based.
The test system of series [11] is Mus musculus. In words: Antipsychotic activity in albino lyka mouse assessed as reversal of apomorphine-induced stereotype response at 1 mg/kg, ip administered 10 mins prior to apomorphine challenge measured after 10 to 30 mins. It is filed as functional, organism-based. Also noted: dose 1 mg/kg.
For series [12], the system named is Mus musculus. Nature of the series: Antipsychotic activity in albino lyka mouse assessed as reduction in apomorphine-induced mesh climbing response at 80 mg/kg, ip administered 10 mins prior to apomorphine challenge measured after 10 to 30 mins. Details: dose 80 mg/kg. It is filed as functional, organism-based.
In series [13] the test system is Mus musculus. Nature of the series: Antipsychotic activity in albino lyka mouse assessed as reversal of apomorphine-induced stereotype response at 80 mg/kg, ip administered 10 mins prior to apomorphine challenge measured after 10 to 30 mins. Details: dose 80 mg/kg. It is filed as functional, organism-based.

Calls of active or inactive are those of the source. No cut-off for these calls is given here.

As for `Cc1nc2n(c(=O)c1CCN1CCC(c3noc4cc(F)ccc34)CC1)CCCC2` [RISPERIDONE], the logP in series [1] worked out at 2.1.
Regarding `O=C(c1ccccc1)N1CCN(CCCOc2cccc3cccnc23)CC1`, in series [2], the result was inactive. Also, the outcome in series [3] was Active. For the same compound, the logP in series [1] was 3.02.
On to `c1ccc(CN2CCN(CCCOc3cccc4cccnc34)CC2)cc1`, for which, in series [4], the result was Active. In addition, the outcome in [5] was inactive. In addition, the logP in [1] was 3.58.
`O=C(c1ccc(F)cc1)C1CCN(CCn2c(=O)[nH]c3ccccc3c2=O)CC1` [KETANSERIN]: the logP in series [1] is 2.37.
On the same count and under the same terms, as for `O=C1Cc2cc(CCN3CCN(c4nsc5ccccc45)CC3)c(Cl)cc2N1` [ZIPRASIDONE], the figure is 4.67.
On to `Clc1ccc(CN2CCN(CCCOc3ccc4ncccc4c3)CC2)cc1`, for which the outcome in series [6] and in series [7] was inactive. In series [1], this compound gave a logP of 4.14.
With `CN1CCN(C2=Nc3cc(Cl)ccc3Nc3ccccc32)CC1` [CLOZAPINE], the lipophilicity (logP) in [1] is 3.71.
`O=C(c1ccccc1)N1CCN(CCCOc2ccc3ncccc3c2)CC1`: the result in series [8] was inactive. Also, the outcome in series [9] was Active. Besides, the logP in series [1] was 3.02.
As for `O=C(c1ccc(Cl)cc1)N1CCN(CCCOc2cccc3cccnc23)CC1`, the result in series [6] was inactive. Moreover, in series [1], the lipophilicity (logP) turned out to be 3.58. The result in [7] was Active.
For the compound `O=C(c1ccc(Cl)cc1)N1CCN(CCCOc2ccc3ncccc3c2)CC1`, in [10], the outcome was inactive. In series [1], this compound returned a logP of 3.58. Moreover, the result in series [11] was Active.
As for `Clc1ccc(CN2CCN(CCCOc3cccc4cccnc34)CC2)cc1`, the result in series [12] was Active. For the same compound, in series [1], the logP is 4.14. In addition, the outcome in series [13] was inactive.
For `c1ccc(CN2CCN(CCCOc3ccc4ncccc4c3)CC2)cc1`, the result in [8] and in series [9] was inactive. For the same compound, in [1], the log partition coefficient (logP) was determined as 3.58.

One may read the logP as the decadic logarithm of the partition coefficient of the neutral form, usually between octanol and water. A low value points to lower lipophilicity.
